Non-standard residues stand in square brackets, D forms with d. Residues, ends and D or L forms follow the SMILES beside them. NMeF = CN[C@@H](Cc1ccccc1)C(=O)O; NMeV = CN[C@H](C(=O)O)C(C)C

In the test the target is T1, BIR3 domain of XIAP (recombinant XIAP-BIR3, residues 238-358) (Homo sapiens, UniProt P98170).
T1 construct: Recombinant XIAP-BIR3 (residues 238-358); GST (N, cleaved yes); made in house; host or cells: E. coli
T1 sequence (P98170 238-358): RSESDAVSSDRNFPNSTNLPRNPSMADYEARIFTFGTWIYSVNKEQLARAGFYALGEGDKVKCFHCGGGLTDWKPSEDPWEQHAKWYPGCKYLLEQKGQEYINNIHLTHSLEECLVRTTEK
Put plainly: Fluorescence-based competition assay of tetrapeptide libraries (Example 1). In kind it is binding, mammalian. From the text:
Expression and Purification of BIR3. […] The soluble fraction of the GST-BIR3 in the E. coli lysate was purified over a glutathione sepharose column, and further purified by anion exchange chromatography (Mono-Q, Amersham Biosciences). The fusion protein was cleaved by thrombin, and the GST portion was removed by the glutathione sepharose column. The BIR3 protein was further purified over a gel filtration column (Superdex 30, Amersham Biosciences).
Fluorescence Experiments. Luminescence spectra were recorded using a Photon Technologies, Inc. fluorometer with a Xe arc lamp and a PMT detector. […] The buffer used in all of the fluorescence experiments was 50 mM potassium phosphate, 100 mM NaCl, 2 mM 1,4-dithio-DL-threitol (DTT), pH 7.
Assay of Tetrapeptide Libraries. The samples were prepared in a 96 well plate lined with glass tubes, to prevent adsorption of the dye to plastic. The plate was stored on ice in the dark between measurements. […] 390 μL of this stock solution were added to 50 wells of the 96 well plate. 50 μL of the test tetrapeptide solutions were added and mixed immediately prior to taking the emission spectra. The final solutions were 5 μM in both badan and BIR3, and approximately 20-30 μM in the tetrapeptide solutions. […] 50 μL of water was added to these wells, again as controls, to determine the intensity of the unbound dye.
The binding of various tetrapeptide mimics to the BIR3 domain of XIAP was determined using a fluorescence-based competition assay. The assay is based on an environment-sensitive fluorogenic dye molecule, badan. Badan is a dye whose sensitivity to environmental changes has previously been used to probe protein binding interactions. […] As the dye is displaced from the binding pocket by the test molecule, the emission shifts back towards the aquated spectrum.
Broadly, the Kd is the constant that tells how readily two partners part at equilibrium. `CC(C)[C@@H](C(=O)N1CCC[C@H]1C(=O)N(C)[C@@H](Cc1ccccc1)C(N)=O)N(C)C(=O)[C@H](C)N` [A(N-Me)VP(N-Me)F] (H-A[NMeV]P[NMeF]-NH2; N-terminus and C-terminus assumed): the dissociation constant Kd was 91000 nM.

Regarding `CC(C)[C@@H](C(=O)N1CCC[C@H]1C(=O)N[C@@H](Cc1ccccc1)C(N)=O)N(C)C(=O)[C@H](C)N` [A(N-Me)VPF], the dissociation constant (Kd) was found to be 83000 nM.

As for `CC[C@H](C)[C@H](NC(=O)[C@@H]1CCCN1C(=O)[C@H](C(C)C)N(C)C(=O)[C@H](C)N)C(N)=O` [A(N-Me)VPI], the Kd turned out to be 257000 nM.

With `CC[C@H](C)[C@H](NC(=O)[C@@H]1CCCN1C(=O)[C@H](C)NC(=O)[C@H](C)N)C(N)=O` [AAPI] (H-AAPI-NH2; N-terminus and C-terminus assumed), the equilibrium dissociation constant (Kd) stood at 2800 nM.

With `CC[C@H](C)[C@H](NC(=O)[C@@H]1CCCN1C(=O)[C@H](CC(=O)O)NC(=O)[C@H](C)N)C(N)=O` [ADPI] (H-ADPI-NH2; N-terminus and C-terminus assumed), the Kd is 17000 nM.

For `CC[C@H](C)[C@H](NC(=O)[C@@H]1CCCN1C(=O)[C@H](CCC(=O)O)NC(=O)[C@H](C)N)C(N)=O` [AEPI] (H-AEPI-NH2; N-terminus and C-terminus assumed), the Kd was 2700 nM.

As for `CC[C@H](C)[C@H](NC(=O)[C@@H]1CCCN1C(=O)CNC(=O)[C@H](C)N)C(N)=O` [AGPI] (H-AGPI-NH2; N-terminus and C-terminus assumed), the dissociation constant (Kd) came out at 46000 nM.

For `CC[C@H](C)[C@H](NC(=O)[C@@H]1CCCN1C(=O)[C@H](CC(N)=O)NC(=O)[C@H](C)N)C(N)=O` [ANPI] (H-ANPI-NH2; N-terminus and C-terminus assumed), the Kd came to 1500 nM.

Turning to `CC[C@H](C)[C@H](NC(=O)[C@@H]1CCCN1C(=O)[C@@H]1CCCN1C(=O)[C@H](C)N)C(N)=O` [APPI] (H-APPI-NH2), the Kd was > 100000 nM.

Turning to `C[C@H](N)C(=O)N[C@@H](CCCNC(=N)N)C(=O)N1CCC[C@H]1C(=O)N(C)[C@@H](Cc1ccccc1)C(N)=O` [ARP(N-Me)F] (H-ARP[NMeF]-NH2; N-terminus and C-terminus assumed), the Kd was 710 nM.

Turning to `CC[C@H](C)[C@@H](C(N)=O)N(C)C(=O)[C@@H]1CCCN1C(=O)[C@H](CCCNC(=N)N)NC(=O)[C@H](C)N` [ARP(N-Me)I], the Kd came out at 190000 nM.

As to `CC[C@H](C)[C@H](NC(=O)[C@@H]1CCCN1C(=O)[C@H](CO)NC(=O)[C@H](C)N)C(N)=O` [ASPI] (H-ASPI-NH2; N-terminus and C-terminus assumed), the Kd was 1400 nM.

With `CC[C@H](C)[C@H](NC(=O)[C@@H]1CCCN1C(=O)[C@@H](NC(=O)[C@H](C)N)[C@@H](C)O)C(N)=O` [ATPI] (H-ATPI-NH2; N-terminus and C-terminus assumed), the Kd was determined as 1200 nM.

With `CC(C)[C@H](NC(=O)[C@H](C)N)C(=O)N[C@@H](C)C(=O)N[C@@H](Cc1ccccc1)C(N)=O` [AVAF], the dissociation constant (Kd) came to 560 nM.

Regarding `CC(C)[C@H](NC(=O)[C@H](C)N)C(=O)N1CCC[C@H]1C(=O)N(C)[C@@H](Cc1ccccc1)C(N)=O` [AVP(N-Me)F] (H-AVP[NMeF]-NH2; N-terminus and C-terminus assumed), the Kd is 890 nM.

Consider `CC[C@H](C)[C@@H](C(N)=O)N(C)C(=O)[C@@H]1CCCN1C(=O)[C@@H](NC(=O)[C@H](C)N)C(C)C` [AVP(N-Me)I], for which the Kd was determined as 174000 nM.

For `CC(C)[C@H](NC(=O)[C@H](C)N)C(=O)N1CCC[C@H]1C(=O)N[C@@H](CC(N)=O)C(N)=O` [AVPN] (H-AVPN-NH2), the Kd was > 100000 nM.

On to `CC(C)[C@H](NC(=O)[C@H](C)N)C(=O)N1CCC[C@H]1C(=O)N[C@@H](CCC(N)=O)C(N)=O` [AVPQ] (H-AVPQ-NH2), for which the Kd is > 100000 nM.

On to `CC[C@H](C)[C@H](NC(=O)[C@@H]1CCCN1C(=O)[C@H](Cc1c[nH]c2ccccc12)NC(=O)[C@H](C)N)C(N)=O` [AWPI] (H-AWPI-NH2; N-terminus and C-terminus assumed), for which the Kd is 990 nM.
